Where two headings read alike, the source gives them in different places.
What was measured:
[1] = test system: HLA-A2.1-having EBV transformed B-cells (221A2.1); details: for Cytotoxic Activity (%) E/T Ratio 3 / Cytotoxic Activity (%) E/T Ratio 10 / Cytotoxic Activity (%) E/T Ratio 1 / Cytotoxic Activity (%) E/T Ratio 30: FluMPA2.1
[2] = test system: HLA-A2.1-having EBV transformed B-cells (221A2.1); details: for Cytotoxic Activity (%) E/T Ratio 1 / Cytotoxic Activity (%) E/T Ratio 3 / Cytotoxic Activity (%) E/T Ratio 10 / Cytotoxic Activity (%) E/T Ratio 2.5 / Cytotoxic Activity (%) E/T Ratio 5: FluMPA2.1
[3] = test system: anti-influenza virus memory CTLs (FluMPA2.1); assay type: cell-based, human
[4] = Example 2-3, sample 10 μg/ml during CTL induction +, during expansion +, peptide addition +
[5] = Example 2-3, sample 10 μg/ml during CTL induction +, during expansion +, peptide addition −
[6] = Example 2-6, sample during CTL induction −, during expansion + (10 μg/ml), peptide addition +
[7] = Example 2-6, sample during CTL induction −, during expansion + (10 μg/ml), peptide addition −
[8] = Example 2-7, sample 10 μg/ml during CTL induction +, during expansion +, peptide addition +
[9] = Example 2-7, sample 10 μg/ml during CTL induction +, during expansion +, peptide addition −
[10] = Example 2-7, sample 10 μg/ml during CTL induction +, during expansion −, peptide addition +
[11] = Example 2-7, sample 10 μg/ml during CTL induction +, during expansion −, peptide addition −
[12] = Example 1-2, sample 10 μg/ml during CTL induction +, during culture with IL-2 +, peptide addition +
[13] = Example 1-2, sample 10 μg/ml during CTL induction +, during culture with IL-2 +, peptide addition −
[14] = sample 10 μg/ml during CTL induction and during continuous culture, 10 to 14 days
[15] = Example 2-6, sample during CTL induction −, during expansion + (10 μg/ml)
[16] = Example 2-4, sample 10 μg/ml during CTL induction +, during expansion +, peptide addition +
[17] = Example 2-4, sample 10 μg/ml during CTL induction +, during expansion +, peptide addition −
[18] = Example 1-4, sample 10 μg/ml during CTL induction +, during culture with IL-2 +, peptide addition +
[19] = Example 1-4, sample 10 μg/ml during CTL induction +, during culture with IL-2 +, peptide addition −
[20] = Example 2-4, sample 10 μg/ml during CTL induction +, during expansion +

CC1OC(OC2C(OC3C(OC4C(OS(=O)(=O)O)C(C)OC(O)C4OS(=O)(=O)O)OC(C)C(OS(=O)(=O)O)C3OC3OC(C)C(OS(=O)(=O)O)C(OS(=O)(=O)O)C3OS(=O)(=O)O)OC(C)C(OS(=O)(=O)O)C2OC2OC(C)C(OS(=O)(=O)O)C(OC3OC(C)C(OS(=O)(=O)O)C(O)C3OS(=O)(=O)O)C2OS(=O)(=O)O)C(O)C(OS(=O)(=O)O)C1O (stereo not drawn) [7-12SFd-F]
Cytotoxic Activity (%) E/T Ratio 3 [1, 4]: 67.0%
Cytotoxic Activity (%) E/T Ratio 10 [1, 4]: 93.7%
Cytotoxic Activity (%) E/T Ratio 3 [1, 5]: 2.8%
Cytotoxic Activity (%) E/T Ratio 10 [1, 5]: 0%
Cytotoxic Activity (%) E/T Ratio 1 [1, 6]: 14.1%
Cytotoxic Activity (%) E/T Ratio 3 [1, 6]: 20.1%
Cytotoxic Activity (%) E/T Ratio 10 [1, 6]: 41.7%
Cytotoxic Activity (%) E/T Ratio 30 [1, 6]: 64.6%
Cytotoxic Activity (%) E/T Ratio 1 [1, 7]: 2.7%
Cytotoxic Activity (%) E/T Ratio 3 [1, 7]: 0%
Cytotoxic Activity (%) E/T Ratio 10 [1, 7]: 1.0%
Cytotoxic Activity (%) E/T Ratio 30 [1, 7]: 3.5%
Cytotoxic Activity (%) E/T Ratio 1 [1, 8]: 9.4%
Cytotoxic Activity (%) E/T Ratio 3 [1, 8]: 23.4%
Cytotoxic Activity (%) E/T Ratio 10 [1, 8]: 44.2%
Cytotoxic Activity (%) E/T Ratio 30 [1, 8]: 82.1%
Cytotoxic Activity (%) E/T Ratio 1 [1, 9]: 0%
Cytotoxic Activity (%) E/T Ratio 3 [1, 9]: 0%
Cytotoxic Activity (%) E/T Ratio 10 [1, 9]: 0%
Cytotoxic Activity (%) E/T Ratio 30 [1, 9]: 1.6%
Cytotoxic Activity (%) E/T Ratio 1 [1, 10]: 14.0%
Cytotoxic Activity (%) E/T Ratio 3 [1, 10]: 34.6%
Cytotoxic Activity (%) E/T Ratio 10 [1, 10]: 50.4%
Cytotoxic Activity (%) E/T Ratio 30 [1, 10]: 83.5%
Cytotoxic Activity (%) E/T Ratio 1 [1, 11]: 6.7%
Cytotoxic Activity (%) E/T Ratio 3 [1, 11]: 6.5%
Cytotoxic Activity (%) E/T Ratio 10 [1, 11]: 9.3%
Cytotoxic Activity (%) E/T Ratio 30 [1, 11]: 9.8%
cytotoxic activity after expansion for 14 days (in words) ([1]; sample 10 μg/ml during CTL induction and during expansion, no EBV-B cells): maintained specific, high cytotoxic activity
Cytotoxic Activity (%) E/T Ratio 1 [2, 12]: 12.0%
Cytotoxic Activity (%) E/T Ratio 3 [2, 12]: 37.9%
Cytotoxic Activity (%) E/T Ratio 10 [2, 12]: 60.7%
Cytotoxic Activity (%) E/T Ratio 1 [2, 13]: 0.3%
Cytotoxic Activity (%) E/T Ratio 3 [2, 13]: 2.2%
Cytotoxic Activity (%) E/T Ratio 10 [2, 13]: 11.7%
cytotoxic activity after continuous culture (in words) [2, 14]: maintaining an antigen-specific cytotoxic activity
Expansion Ratio ([3]; Example 2-3, sample 10 μg/ml during CTL induction +, during expansion +, 14 days): × 178
Expansion Ratio [3, 15]: × 310
Expansion Ratio ([3]; Example 2-7, sample 10 μg/ml during CTL induction +, during expansion +): × 258
Expansion Ratio ([3]; Example 2-7, sample 10 μg/ml during CTL induction +, during expansion −): × 283

sodium chondroitin sulfate B
Cytotoxic Activity (%) E/T Ratio 3 [1, 16]: 57.8%
Cytotoxic Activity (%) E/T Ratio 10 [1, 16]: 98.2%
Cytotoxic Activity (%) E/T Ratio 3 [1, 17]: 1.0%
Cytotoxic Activity (%) E/T Ratio 10 [1, 17]: 10.7%
Cytotoxic Activity (%) E/T Ratio 1 [1, 6]: 15.2%
Cytotoxic Activity (%) E/T Ratio 3 [1, 6]: 27.2%
Cytotoxic Activity (%) E/T Ratio 10 [1, 6]: 48.1%
Cytotoxic Activity (%) E/T Ratio 30 [1, 6]: 76.2%
Cytotoxic Activity (%) E/T Ratio 1 [1, 7]: 3.9%
Cytotoxic Activity (%) E/T Ratio 3 [1, 7]: 4.4%
Cytotoxic Activity (%) E/T Ratio 10 [1, 7]: 8.3%
Cytotoxic Activity (%) E/T Ratio 30 [1, 7]: 11.8%
Cytotoxic Activity (%) E/T Ratio 2.5 [2, 18]: 28.1%
Cytotoxic Activity (%) E/T Ratio 5 [2, 18]: 38.1%
Cytotoxic Activity (%) E/T Ratio 10 [2, 18]: 60.7%
Cytotoxic Activity (%) E/T Ratio 2.5 [2, 19]: 0%
Cytotoxic Activity (%) E/T Ratio 5 [2, 19]: 0%
Cytotoxic Activity (%) E/T Ratio 10 [2, 19]: 0.8%
Cytotoxic Activity (%) E/T Ratio 10 ([2]; Example 1-5, sample during CTL induction −, during culture with IL-2 + (10 μg/ml), peptide addition +): 24.0%
Cytotoxic Activity (%) E/T Ratio 10 ([2]; Example 1-5, sample during CTL induction −, during culture with IL-2 + (10 μg/ml), peptide addition −): 4.6%
cytotoxic activity after continuous culture (in words) [2, 14]: effects for maintaining cytotoxic activity
cytotoxic activity after continuous culture (in words) ([2]; sample 10 μg/ml only during continuous culture): maintaining an antigen-specific cytotoxic activity
Expansion Ratio [3, 20]: × 178
Expansion Ratio [3, 15]: × 383

sodium chondroitin sulfate A
Cytotoxic Activity (%) E/T Ratio 3 [1, 16]: 56.7%
Cytotoxic Activity (%) E/T Ratio 10 [1, 16]: 89.0%
Cytotoxic Activity (%) E/T Ratio 3 [1, 17]: 0%
Cytotoxic Activity (%) E/T Ratio 10 [1, 17]: 5.3%
Cytotoxic Activity (%) E/T Ratio 1 [1, 6]: 8.0%
Cytotoxic Activity (%) E/T Ratio 3 [1, 6]: 18.7%
Cytotoxic Activity (%) E/T Ratio 10 [1, 6]: 36.6%
Cytotoxic Activity (%) E/T Ratio 30 [1, 6]: 67.6%
Cytotoxic Activity (%) E/T Ratio 1 [1, 7]: 6.3%
Cytotoxic Activity (%) E/T Ratio 3 [1, 7]: 5.6%
Cytotoxic Activity (%) E/T Ratio 10 [1, 7]: 7.5%
Cytotoxic Activity (%) E/T Ratio 30 [1, 7]: 18.8%
Cytotoxic Activity (%) E/T Ratio 10 ([2]; Example 1-3, sample 10 μg/ml during CTL induction +, during culture with IL-2 +, peptide addition +): 75.5%
Cytotoxic Activity (%) E/T Ratio 10 ([2]; Example 1-3, sample 10 μg/ml during CTL induction +, during culture with IL-2 +, peptide addition −): 21.1%
cytotoxic activity after continuous culture (in words) [2, 14]: continuous culture of CTLs having an antigen-specific cytotoxic activity can be carried out
Expansion Ratio [3, 20]: × 280
Expansion Ratio [3, 15]: × 383

Reference: US7816134B2, “Method of extensive culture of antigen-specific cytotoxic T cells” (Takara Bio Inc., priority 2000, dated 2010)
